Values quoted from earlier work as cited in US20220151922A1, “Medication for Alleviating Parkinson's Symptoms and Method of Administering” (priority 2020, published 2022).

How the values were obtained:
[1] = system: Pseudomonas aeruginosa biofilms
[2] = system: bacteria, bacterial spores, and viruses; details: versus chlorine bleach

OCl [HOCl, Hypochlorous acid]
removing Pseudomonas aeruginosa biofilms [1]: effectiveness
effectiveness of killing bacteria, bacterial spores, and viruses relative to chlorine bleach [2]: 100 times
